Measured values as given in ChEMBL document CHEMBL4627310, “Design, synthesis and biological evaluation of 3-nitro-1,8-naphthalimides as potential antitumor agents” (Bioorg Med Chem Lett, 2020).
pIC50: −log10 of the molar value.

Legend:
L02 = experiment: Cytotoxicity against human HL7702 cells assessed as cell growth inhibition measured after 48 hrs by MTT assay; format: cell-based; settings: L02, 48 h
HepG2 [1] = experiment: Antiproliferative activity against human HepG2 cells assessed as cell growth inhibition measured after 48 hrs by MTT assay; format: functional, cell-based; settings: HepG2, 48 h
SMMC-7721 = experiment: Antiproliferative activity against human SMMC7721 cells assessed as cell growth inhibition measured after 48 hrs by MTT assay; format: functional, cell-based; settings: SMMC-7721, 48 h
T-24 [2] = experiment: Antiproliferative activity against human T24 cells assessed as cell growth inhibition measured after 48 hrs by MTT assay; format: functional, cell-based; settings: T-24, 48 h
A549 = experiment: Antiproliferative activity against human A549 cells assessed as cell growth inhibition measured after 48 hrs by MTT assay; format: functional, cell-based; settings: A549, 48 h
SK-OV-3 = experiment: Antiproliferative activity against human SKOV3 cells assessed as cell growth inhibition measured after 48 hrs by MTT assay; format: functional, cell-based; settings: SK-OV-3, 48 h
HepG2 [3] = experiment: Anticancer activity against human HepG2 cells xenografted in mouse assessed as tumor growth inhibition by measuring T/C ratio at 5 mg/kg measured at day 14 relative to control; format: functional
T-24 [4] = experiment: Anticancer activity against human T24 cells xenografted in mouse assessed as tumor growth inhibition by measuring T/C ratio at 5 mg/kg measured at day 14 relative to control; format: functional
HepG2 [5] = experiment: Anticancer activity against human HepG2 cells xenografted in mouse assessed as tumor inhibition rate at 5 mg/kg measured at day 14 relative to control; format: functional; settings: HepG2, 336 h
T-24 [6] = experiment: Anticancer activity against human T24 cells xenografted in mouse assessed as tumor inhibition rate at 5 mg/kg measured at day 14 relative to control; format: functional; settings: T-24, 336 h

| SMILES | pIC50 (L02) | pIC50 (HepG2 [1]) | pIC50 (SMMC-7721) | pIC50 (T-24 [2]) | pIC50 (A549) | pIC50 (SK-OV-3) | T/C (HepG2 [3]) | T/C (T-24 [4]) | inhibition in vivo at 5 mg/kg (HepG2 [5]) | inhibition in vivo at 5 mg/kg (T-24 [6]) |
| --- | --- | --- | --- | --- | --- | --- | --- | --- | --- | --- |
| O=C1c2cccc3cc([N+](=O)[O-])cc(c23)C(=O)N1Nc1ccccn1 | 4.08 | 4.37 | < 4.00 | 4.24 | 4.52 | 4.32 |  |  |  |  |
| CN(C)CCN1C(=O)c2cccc3cc([N+](=O)[O-])cc(c23)C1=O [MITONAFIDE] | 5.07 | 4.96 | 5.16 | 5.30 | 5.10 | 5.20 | 28.8% | 29% | 68.3% | 67% |
